ChEMBL document CHEMBL1156505, “Allosteric transinhibition by specific antagonists in CCR2/CXCR4 heterodimers” (J Biol Chem, 2007)
Active and inactive are the calls of the source. No cut-off for these calls is given here.

Experiments:
Homo sapiens = organism: Homo sapiens; test: Inhibition of migration of human CD4+ lymphoblasts towards MCP1 by chemotaxis assay; format: functional
[1] = biological target: T1, C-C chemokine receptor type 2 (Homo sapiens, UniProt P41597); test: Displacement of [125I]MCP1 from CCR2/CXCR4 expressed in CHOK1 cells; format: cell-based; conditions: CHO-K1; concentration not given here
Target sequence in this assay (P41597 whole entry, looked up): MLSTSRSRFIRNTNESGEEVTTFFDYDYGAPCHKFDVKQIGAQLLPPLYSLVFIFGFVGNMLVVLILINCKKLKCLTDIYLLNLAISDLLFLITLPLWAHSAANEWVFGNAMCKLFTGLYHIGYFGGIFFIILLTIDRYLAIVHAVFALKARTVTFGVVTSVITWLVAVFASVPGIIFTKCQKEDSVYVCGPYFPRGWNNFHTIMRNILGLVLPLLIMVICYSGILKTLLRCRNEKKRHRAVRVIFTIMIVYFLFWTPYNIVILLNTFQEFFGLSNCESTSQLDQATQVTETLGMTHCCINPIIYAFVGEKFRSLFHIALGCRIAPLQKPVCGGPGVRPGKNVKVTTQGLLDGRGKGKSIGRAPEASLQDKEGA

[2] = biological target: T1, C-C chemokine receptor type 2; test: Displacement of [125I]SDF1alpha from CCR2/CXCR4 expressed in CHOK1 cells; format: cell-based; conditions: CHO-K1; concentration not given here
Target sequence in this assay (P41597 whole entry, looked up): as above

[3] = biological target: T1, C-C chemokine receptor type 2; test: biochemical
Target sequence in this assay (P41597 whole entry): as the sequence (P41597 whole entry, looked up) above
Description: Displacement of [125I]MCP1 from CCR2 expressed in CHOK1 cells

| inhibition [1] [%] | inhibition [2] [%] | IC50 [3] [pM] | Compound | Activity (Homo sapiens) |
| --- | --- | --- | --- | --- |
| 90.7 | 38.1 | 250 | Cc1ccc(-c2ccc3c(c2)C=C(C(=O)Nc2ccc(C[N+](C)(C)C4CCOCC4)cc2)CCC3)cc1 | Active |
| 36.2 | 87.1 | – | c1cc(CN2CCCNCCNCCCNCC2)ccc1CN1CCCNCCNCCCNCC1 | – |
